Measured values taken from patent US8426447B2, “Spiro-tricyclic ring compounds as beta-secretase modulators and methods of use” (Amgen Inc., priority 2008, dated 2013).
One block for each compound: values may come before it.

Assays:
BACE1 [1] = target: T1, BACE1 (Homo sapiens, UniProt P56817); assay: In Vitro BACE Cell-based Assay (HEK cell assay): Aβ40 in conditioned medium of cells stably expressing Amyloid Precursor Protein, sandwich ELISA; conditions: read-out: HEK cell assay
Method: In Vitro BACE Cell-based Assay
The cell-based assay measures inhibition or reduction of Aβ40 in conditioned medium of test compound treated cells expressing amyloid precursor protein.
Cells stably expressing Amyloid Precursor Protein (APP) were plated at a density of 40K cells/well in 96 well plates (Costar). The cells were cultivated for 24 hours at 37° C. and 5% CO2 in DMEM supplemented with 10% FBS. The test compounds were then added to cells in 10-point dose response concentrations with the starting concentration being either 100 μM or 10 μM. The compounds were diluted from stock solutions in DMSO and the final DMSO concentration of the test compounds on cells was 0.1%. After 24 h of incubation with the test compounds the supernatant conditioned media was collected and the Aβ 40 levels were determined using a sandwich ELISA. The IC50 of the compound was calculated from the percent of control or percent inhibition of Aβ 40 as a function of the concentration of the test compound.
The sandwich ELISA to detect Aβ 40 was performed in 96 well microtiter plates, which were pre-treated with goat anti-rabbit IgG (Pierce). The capture and detecting antibody pair that were used to detect Aβ 40 from cell supernatants were affinity purified pAb40 (Biosource) and biotinylated 6E10 (Signet Labs Inc.), respectively. The optimal concentration for the pAb40 antibody was 3 μg/ml in Superblock/TBS (Pierce) that was supplemented with 0.05% Tween 20 (Sigma).
Cellular supernatants were incubated with the capture antibody for 3 h at 4° C., followed by 3 wash steps in TBS-tween (0.05%). The detecting antibody incubation was for 2 h at 4° C., again followed by the wash steps as described previously. The final readout of the ELISA is Time-Resolved Fluorescence (counts per minute) using Delfia reagents Streptavidin-Europium and Enhancement solutions (Perkin Elmer) and the Victor 2 multilabel counter (Perkin Elmer).

BACE1 [2] = target: T1, BACE1; assay: In Vitro Enzymatic BACE FRET (Fluorescence Resonance Energy Transfer) Assay; type: biochemical; conditions: read-out: BACE1 FRET assay
Method in brief: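 Fluorescence read-out after Tris addition raises pH to neutrality and ends the reaction. Before that, a peptide substrate carrying fluorophore and quencher across the BACE cleavage site (50 nM) is incubated with enzyme for one hour at pH 4.2 in acetate containing 10% DMSO and sub-micellar genapol.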

[3] = HEK cell-based assay, Aβ40 in conditioned medium, IC50 class symbols
[4] = in vitro BACE FRET enzyme assay, IC50 class symbols

T1 sequence (P56817 46-501, species assumed): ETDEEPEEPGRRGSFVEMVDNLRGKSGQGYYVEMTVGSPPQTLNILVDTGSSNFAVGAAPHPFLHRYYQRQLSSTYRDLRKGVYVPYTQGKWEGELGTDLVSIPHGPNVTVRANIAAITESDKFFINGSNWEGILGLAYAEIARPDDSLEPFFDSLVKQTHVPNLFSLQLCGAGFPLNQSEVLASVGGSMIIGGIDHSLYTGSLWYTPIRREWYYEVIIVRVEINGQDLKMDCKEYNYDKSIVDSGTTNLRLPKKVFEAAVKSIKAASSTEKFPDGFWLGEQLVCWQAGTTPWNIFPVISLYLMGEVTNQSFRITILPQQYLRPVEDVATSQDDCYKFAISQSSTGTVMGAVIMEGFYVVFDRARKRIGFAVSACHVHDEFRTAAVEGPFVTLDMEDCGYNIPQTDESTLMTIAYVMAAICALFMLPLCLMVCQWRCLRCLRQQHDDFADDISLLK

IC50 (BACE1 [1]): > 5 µM
IC50 (BACE1 [2]): > 5 µM
Structure (SMILES): CC(C)(C)OC(=O)/C=C/c1ccc2c(c1)[C@]1(COC(N)=N1)c1cc(Br)ccc1O2 [compound 996]

IC50 (BACE1 [1]; Table IV, class symbols): > 5 µM
IC50 (BACE1 [2]; Table IV, class symbols): > 5 µM
Structure (SMILES): NC1=N[C@]2(CO1)c1cc(Br)ccc1Oc1ccc(Cl)nc12 [compound 856]

IC50 (BACE1 [1]): < 0.1 µM
IC50 (BACE1 [2]): < 0.1 µM
Structure (SMILES): NC1=N[C@]2(CO1)c1cc(C#CC3(O)CCC3)ccc1Oc1ccc(-c3cccnc3)cc12 [compound 942]

IC50 (BACE1 [1]; Table IV, class symbols): 0.1 to 1 µM
IC50 (BACE1 [2]; Table IV, class symbols): 0.1 to 1 µM
Structure (SMILES): NC1=N[C@@]2(CO1)c1cc(C(=O)N3CCCC3)ccc1Oc1ccc(-c3cccnc3)cc12 [compound 872]

IC50 (BACE1 [1]; Table IV, class symbols): 0.1 to 1 µM
IC50 (BACE1 [2]; Table IV, class symbols): < 0.1 µM
Structure (SMILES): CCCOc1cc2c(cc1F)Oc1ccc(-c3ccc(F)nc3)cc1[C@@]21COC(N)=N1 [compound 920]

IC50 (BACE1 [1]): 1 to 5 µM
IC50 (BACE1 [2]): 0.1 to 1 µM
Structure (SMILES): CC(C)(C)COc1ccc2c(c1)[C@]1(COC(N)=N1)c1cc(C3=CCOCC3)ccc1O2 [compound 755]

IC50 (BACE1 [1]): 1 to 5 µM
IC50 (BACE1 [2]): 0.1 to 1 µM
Structure (SMILES): CN(C)c1ncc(-c2ccc3c(c2)[C@]2(COC(N)=N2)c2cc(OCC(C)(C)C)ccc2O3)cn1 [compound 780]

IC50 (BACE1 [1]): 0.1 to 1 µM
IC50 (BACE1 [2]): 0.1 to 1 µM
Structure (SMILES): NC1=N[C@]2(CO1)c1ccccc1Oc1ccc(-c3cccnc3)cc12 [compound 684]

IC50 (BACE1 [1]): 0.1 to 1 µM
IC50 (BACE1 [2]): < 0.1 µM
Structure (SMILES): CC(C)(C)COc1ccc2c(c1C#N)[C@]1(COC(N)=N1)c1cc(-c3cccnc3)ccc1O2 [compound 943]

IC50 (BACE1 [1]): 0.1 to 1 µM
IC50 (BACE1 [2]): < 0.1 µM
Structure (SMILES): CC1(COc2ccc3c(c2)[C@@]2(COC(N)=N2)c2cc(-c4cccc(Cl)c4)cnc2O3)COC1 [compound 772]

IC50 (BACE1 [1]; Table IV, class symbols): 0.1 to 1 µM
IC50 (BACE1 [2]; Table IV, class symbols): < 0.1 µM
Structure (SMILES): NC1=N[C@@]2(CO1)c1cc(-c3cccnc3)ccc1Oc1ccc(-c3csc(C4CC4)n3)cc12 [compound 632]

IC50 (BACE1 [1]; Table IV, class symbols): 0.1 to 1 µM
IC50 (BACE1 [2]; Table IV, class symbols): < 0.1 µM
Structure (SMILES): NC1=N[C@@]2(CO1)c1cc(-c3cncnc3)ccc1Oc1ccc(-c3cccc(C(F)(F)F)c3)cc12 [compound 809]

IC50 (BACE1 [1]): 1 to 5 µM
IC50 (BACE1 [2]): 0.1 to 1 µM
Structure (SMILES): CC(C)(C)COc1ccc2c(c1)[C@]1(COC(N)=N1)c1cc(C#N)ccc1O2 [compound 959]

IC50 (BACE1 [1]; Table IV, class symbols): < 0.1 µM
IC50 (BACE1 [2]; Table IV, class symbols): < 0.1 µM
Structure (SMILES): CC1(COc2ccc3c(c2)[C@@]2(COC(N)=N2)c2cc(-c4cncnc4)cc(F)c2O3)COC1 [compound 795]

IC50 (BACE1 [1]): 0.1 to 1 µM
IC50 (BACE1 [2]): < 0.1 µM
Structure (SMILES): CC(C)(C)COc1ccc2c(c1)[C@]1(COC(N)=N1)c1cc(-c3cccnc3)ncc1O2 [compound 750]

IC50 (BACE1 [1]): 1 to 5 µM
IC50 (BACE1 [2]): 1 to 5 µM
Structure (SMILES): CON(C)C(=O)COc1ccc2c(c1)[C@]1(COC(N)=N1)c1cc(-c3cccnc3)ccc1O2 [compound 788]

IC50 (BACE1 [1]): 0.1 to 1 µM
IC50 (BACE1 [2]): 0.1 to 1 µM
Structure (SMILES): NC1=NC2(CO1)c1cc(C3=CCOCC3)ccc1Oc1ccc(C3=CCOCC3)cc12 [compound 757]

IC50 (BACE1 [1]): < 0.1 µM
IC50 (BACE1 [2]): < 0.1 µM
Structure (SMILES): NC1=N[C@@]2(CO1)c1cc(-c3cncnc3)ccc1Oc1ncc(C#CC3CC3)cc12 [compound 742]

IC50 (BACE1 [1]): 0.1 to 1 µM
IC50 (BACE1 [2]): 0.1 to 1 µM
Structure (SMILES): CC(C)(O)C#Cc1ccc2c(c1)[C@@]1(COC(N)=N1)c1cc(C#CC(C)(C)O)cnc1O2 [compound 935]

IC50 (BACE1 [1]; Table IV, class symbols): < 0.1 µM
IC50 (BACE1 [2]; Table IV, class symbols): < 0.1 µM
Structure (SMILES): Cc1ccc(-c2ccc3c(c2)[C@]2(COC(N)=N2)c2cc(-c4cncnc4)ccc2O3)o1 [compound 880]

IC50 (BACE1 [1]; Table IV, class symbols): 0.1 to 1 µM
IC50 (BACE1 [2]; Table IV, class symbols): < 0.1 µM
Structure (SMILES): CN(C)C(=O)/C=C/c1ccc2c(c1)[C@]1(COC(N)=N1)c1cc(-c3cncnc3)ccc1O2 [compound 917]

IC50 (BACE1 [1]): 0.1 to 1 µM
IC50 (BACE1 [2]): < 0.1 µM
Structure (SMILES): CC1(C)CC1c1cc2c(cn1)Oc1ccc(-c3cccnc3)cc1[C@]21COC(N)=N1 (stereo partly shown) [compound 677]

IC50 (BACE1 [1]): < 0.1 µM
IC50 (BACE1 [2]): < 0.1 µM
Structure (SMILES): COC(C)(C)COc1ccc2c(c1)[C@@]1(COC(N)=N1)c1cc(-c3cccnc3)cnc1O2 [compound 983]

The remaining lines, values behind:

Structure (SMILES): CC(C)(C)COc1cnc2c(c1)[C@]1(COC(N)=N1)c1cc(-c3ccccc3)ccc1O2 [compound 469]
IC50 (BACE1 [1]; HEK cells): 0.1 to 1 µM
IC50 (BACE1 [2]): < 0.1 µM

Structure (SMILES): CC1(COc2cnc3c(c2)[C@]2(COC(N)=N2)c2cc(-c4ccccc4Cl)ccc2O3)COC1 [compound 414]
IC50 (BACE1 [1]; [3]): 0.1 to 1 µM
IC50 (BACE1 [2]; [4]): < 0.1 µM

Structure (SMILES): COC(C)(C)COc1cc2c(cc1F)Oc1ccc(-c3cccnc3)cc1[C@@]21COC(N)=N1 [compound 544]
IC50 (BACE1 [1]; Table IV, class symbols): < 0.1 µM
IC50 (BACE1 [2]; Table IV, class symbols): < 0.1 µM

Structure (SMILES): NC1=N[C@]2(CO1)c1cc(C3=CCOCC3)ccc1Oc1cc(F)c(-c3cncnc3)cc12 [compound 529]
IC50 (BACE1 [1]; HEK cells): < 0.1 µM
IC50 (BACE1 [2]): < 0.1 µM

Structure (SMILES): Cn1cc(-c2ccc3c(c2)[C@]2(COC(N)=N2)c2cc(-c4cccnc4)ccc2O3)ccc1=O [compound 611]
IC50 (BACE1 [1]; Table IV, class symbols): 0.1 to 1 µM
IC50 (BACE1 [2]; Table IV, class symbols): < 0.1 µM

Structure (SMILES): C[C@@H]1OC(N)=N[C@]12c1cc(OCC(C)(C)C)ccc1Oc1ccc(-c3cncnc3)cc12 [126a, (4R,5S)-2′-(2,2-dimethylpropoxy)-5-methyl-7′-(5-pyrimidinyl)spiro[1,3-oxazole-4,9′-xanthen]-2-amine]
IC50 (BACE1 [1]; Table III, IC50's in uM ranges): 1 to 5 µM
IC50 (BACE1 [2]; Table III, IC50's in uM ranges): 0.1 to 1 µM

Structure (SMILES): CC(C)(C#N)COc1cnc2c(c1)[C@]1(COC(N)=N1)c1cc(-c3cc(F)ccc3F)ccc1O2 [compound 407]
IC50 (BACE1 [1]; [3]): < 0.1 µM
IC50 (BACE1 [2]; [4]): < 0.1 µM

Structure (SMILES): CC1(C)CN(c2cc(F)c3c(c2)[C@]2(COC(N)=N2)c2cc(-c4cncnc4)ccc2O3)CCO1 [compound 505]
IC50 (BACE1 [1]; HEK cells): < 0.1 µM
IC50 (BACE1 [2]): < 0.1 µM

Structure (SMILES): CC(C)(F)COc1cnc2c(c1)[C@]1(COC(N)=N1)c1cc(C#CC3CC3)ccc1O2 [compound 382]
IC50 (BACE1 [1]; [3]): < 0.1 µM
IC50 (BACE1 [2]; [4]): < 0.1 µM

Structure (SMILES): NC1=N[C@@]2(CO1)c1cc(-c3cncnc3)ccc1Oc1ccc(N3CCOC4(CCCC4)C3)cc12 [compound 462]
IC50 (BACE1 [1]; HEK cells): 0.1 to 1 µM
IC50 (BACE1 [2]): < 0.1 µM

Structure (SMILES): COc1ccc2c(c1)C1(COC(N)=N1)c1cc(-c3ccccc3Cl)ccc1O2 (stereo not shown) [Example 28, 2′-(2-chlorophenyl)-7′-methoxyspiro[1,3-oxazole-4,9′-xanthen]-2-amine]
IC50 (BACE1 [1]; Table 1, Aβ40, 24 h incubation): 1 to 5 µM
IC50 (BACE1 [2]; Table 1): > 5 µM

Structure (SMILES): NC1=N[C@@]2(CO1)c1cc(-c3ccccc3F)ccc1Oc1ncc(N3CCOCC3)cc12 [compound 460]
IC50 (BACE1 [1]; HEK cells): 0.1 to 1 µM
IC50 (BACE1 [2]): < 0.1 µM

Structure (SMILES): CC(C)(C)COc1ccc2c(c1)[C@]1(COC(N)=N1)c1cc(-c3ccoc3)ccc1O2 [Example 76, (4S)-2′-(2,2-dimethylpropoxy)-7′-(3-furanyl)spiro[1,3-oxazole-4,9′-xanthen]-2-amine]
IC50 (BACE1 [1]; Table II, Aβ40, 24 h incubation): 1 to 5 µM
IC50 (BACE1 [2]; Table II): < 0.1 µM

Structure (SMILES): CC(C)(C#N)COc1ccc2c(c1)[C@]1(COC(N)=N1)c1cc(-c3cccnc3)ccc1O2 [Example 134, (S)-3-(2-amino-2′-(pyridin-3-yl)-5H-spiro[oxazole-4,9′-xanthene]-7′-yloxy)-2,2-dimethylpropanenitrile]
IC50 (BACE1 [1]; Table III, IC50's in uM ranges): < 0.1 µM
IC50 (BACE1 [2]; Table III, IC50's in uM ranges): < 0.1 µM

Structure (SMILES): CC(C)(C#N)COc1ccc2c(c1)[C@]1(COC(N)=N1)c1cc(C#CC3CC3)ccc1O2 [compound 178]
IC50 (BACE1 [1]; Table III, IC50's in uM ranges): 0.1 to 1 µM
IC50 (BACE1 [2]; Table III, IC50's in uM ranges): < 0.1 µM

Structure (SMILES): NC1=N[C@@]2(CO1)c1cc(-c3cccnc3F)ccc1Oc1ccc(Cl)nc12 [compound 392]
IC50 (BACE1 [1]; [3]): 0.1 to 1 µM
IC50 (BACE1 [2]; [4]): 0.1 to 1 µM

Structure (SMILES): CC(C)(F)COc1cc(F)c2c(c1)[C@]1(COC(N)=N1)c1cc(-c3cccnc3)ccc1O2 [compound 381]
IC50 (BACE1 [1]; [3]): < 0.1 µM
IC50 (BACE1 [2]; [4]): < 0.1 µM

Structure (SMILES): COc1ccc2c(c1)C1(COC(N)=N1)c1cc(-c3cncnc3)ccc1O2 (stereo not shown) [Example 14, 2′-methoxy-7′-(5-pyrimidinyl)spiro[1,3-oxazole-4,9′-xanthen]-2-amine]
IC50 (BACE1 [1]; Table 1, Aβ40, 24 h incubation): 1 to 5 µM
IC50 (BACE1 [2]; Table 1): 0.1 to 1 µM
